The source of these data is article PMC4139024, “Synthesis and In Vitro Inhibition Effect of New Pyrido[2,3-d]pyrimidine Derivatives on Erythrocyte Carbonic Anhydrase I and II” (BioMed Research International, 2014).

pIC50: −log10 of the molar value.

The target of data set [1] is T1, human carbonic anhydrase I (hCA I) (Homo sapiens, UniProt P00915).
T1 construct: from tissue
Description: hCA I inhibition assay (Maren method, CO2 hydration). The data set is classed as biochemical. The settings on record: purified human erythrocyte hCA I, CO2 as substrate. On the procedure: (§1) Blood samples (25 mL) were taken from healthy human volunteers. They were anticoagulated with acid-citrate-dextrose and centrifuged at 2000 g for 20 min at 4°C and the supernatant was removed. The packed erythrocytes were washed three times with 0.9% NaCl and then haemolysed in cold water. The ghosts and any intact cells were removed by centrifugation at 2000 g for 25 min at 4°C, and the pH of the haemolysate was adjusted to pH 8.5 with solid Tris-base. The 25 mL haemolysate was applied to an affinity column containing L-tyrosine-sulfonamide-sepharose-4B [21] equilibrated with 25 mM Tris-HCl/0.1 M Na2SO4 (pH 8.5). The affinity gel was washed with 50 mL of 25 mM Tris-HCl/22 mM Na2SO4 (pH 8.5). The hCA isozymes were then eluted with 0.1 M NaCl/25 mM Na2HPO4 (pH 6.3) and 0.1 M CH3COONa/0.5 M NaClO4 (pH 5.6), which recovered hCA I and hCA II, respectively. Fractions of 3 mL were collected and their absorbance was measured at 280 nm.
(§2) CA activity was measured by the Maren method which is based on determination of the time required for the pH to decrease from 10.0 to 7.4 due to CO2 hydration. The assay solution was 0.5 M Na2CO3/0.1 M NaHCO3 (pH 10.0) and Phenol Red was added as the pH indicator. CO2-hydratase activity (enzyme units (EU)) was calculated by using the equation t 0 − t c/t c, where t 0 and t c are the times for pH change of the nonenzymatic and the enzymatic reactions, respectively.
(§3) For the inhibition studies of indolylchalcone and pyrido[2,3-d]pyrimidine derivatives, different concentrations of these compounds were added to the enzyme. Activity percentage values of CA for different concentrations of each pyrimidine derivatives were determined by regression analysis using Microsoft Office 2000 Excel. CA enzyme activity without these compounds was accepted as 100% activity.

Data set [2] concerns the target T2, human carbonic anhydrase II (hCA II) (Homo sapiens, UniProt P00918).
T2 construct: from tissue
Nature of the data set: hCA II inhibition assay (Maren method, CO2 hydration). The note with it: purified human erythrocyte hCA II, CO2 as substrate. The data set is classed as biochemical. On the procedure:
as §1, §2, §3

T1 sequence (P00915 whole entry): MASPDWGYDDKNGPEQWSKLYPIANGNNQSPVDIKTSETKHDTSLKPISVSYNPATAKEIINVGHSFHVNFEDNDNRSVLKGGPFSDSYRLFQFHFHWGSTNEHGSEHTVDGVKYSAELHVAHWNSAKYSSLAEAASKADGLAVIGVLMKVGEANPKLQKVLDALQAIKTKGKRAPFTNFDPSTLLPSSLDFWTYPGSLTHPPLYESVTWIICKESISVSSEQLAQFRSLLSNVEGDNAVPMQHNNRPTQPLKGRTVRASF

In general, melting point refers to the temperature, or range, at which the solid turns liquid. The pIC50 is the negative decadic logarithm of the IC50, by convention in mol/L. Low values mean a high IC50, high ones a low IC50. `Cn1cc(/C=C/C(=O)c2ccc([N+](=O)[O-])cc2)c2ccccc21` [Compound 5f, (E)-3-(1-Methyl-1H-indol-3-yl)-1-(4-nitrophenyl)prop-2-en-1-one] showed a melting point of 278 °C. The compound also had a pIC50 in data set [1] of 4.96. The same compound showed a pIC50 in data set [2] of 5.03.

On to `Cn1c(=O)c2c(-c3cn(C)c4ccccc34)cc(-c3ccc(Cl)cc3)nc2n(C)c1=O` [Compound 7h, 7-(4-Chlorophenyl)-1,3-dimethyl-5-(1-methyl-1H-indol-3-yl)pyrido[2,3-d]pyrimidine 2,4(1H,3H)-dione], for which the melting point is 358 to 359 °C. The compound also showed a negative logarithm of the IC50 (pIC50) in data set [1] of 4.91. The compound also gave a pIC50 in data set [2] of 4.61.

`Cn1cc(/C=C/C(=O)c2cccc([N+](=O)[O-])c2)c2ccccc21` [Compound 5g, (E)-3-(1-Methyl-1H-indol-3-yl)-1-(3-nitrophenyl)prop-2-en-1-one] registered a melting point of 267 °C. In data set [1], this compound gave a pIC50 of 5.08. Also, the pIC50 in data set [2] was 5.14.

`Cn1c(=O)c2c(-c3cn(C)c4ccccc34)cc(-c3cccc([N+](=O)[O-])c3)nc2n(C)c1=O` [Compound 7k, 1,3-Dimethyl-5-(1-methyl-1H-indol-3-yl)-7-(3-nitrophenyl)pyrido[2,3-d]pyrimidine-2,4(1H,3H)-dione] yielded a melting point of 349 to 350 °C. This compound gave a negative-log IC50 (pIC50) in data set [1] of 4.65. Moreover, the pIC50 in data set [2] is 4.57.

`Cn1c(=O)c2c(-c3cn(C)c4ccccc34)cc(-c3ccccc3)nc2n(C)c1=O` [Compound 7i, 1,3-Dimethyl-5-(1-methyl-1H-indol-3-yl)-7-phenylpyrido[2,3-d]pyrimidine-2,4(1H,3H)-dione] showed a melting point of 320 °C. This compound also had a pIC50 in data set [1] of 5.06. This compound also showed a negative-log IC50 (pIC50) in data set [2] of 5.09.

`COc1ccc(-c2cc(-c3cn(C)c4ccccc34)c3c(=O)n(C)c(=O)n(C)c3n2)cc1OC` [Compound 7e, 7-(3,4-Dimethoxyphenyl)-1,3-dimethyl-5-(1-methyl-1H-indol-3-yl)pyrido[2,3-d]pyrimidine-2,4(1H,3H)-dione] came in with a melting point of 340 to 341 °C. The compound further had a pIC50 in data set [1] of 5.17. Also, the pIC50 in data set [2] is 5.09.

As to `Cc1ccc(-c2cc(-c3cn(C)c4ccccc34)c3c(=O)[nH]c(=O)n(C)c3n2)cc1` [Compound 7b, 1-Methyl-5-(1-methyl-1H-indol-3-yl)-7-p-tolylpyrido[2,3-d]pyrimidine-2,4(1H,3H)-dione], the melting point fell in the range of 399 to 400 °C. In data set [1], this compound had a pIC50 of 4.94. For the same compound, in data set [2], the pIC50 was 4.92.

With `COc1ccc(-c2cc(-c3cn(C)c4ccccc34)c3c(=O)n(C)c(=O)n(C)c3n2)cc1` [Compound 7f, 7-(4-Methoxyphenyl)-1,3-dimethyl-5-(1-methyl-1H-indol-3-yl)pyrido[2,3-d]pyrimidine-2,4(1H,3H)-dione], the melting point lay within 335.7 to 336 °C. The compound also had a pIC50 in data set [1] of 4.58. For the same compound, the pIC50 in data set [2] is 4.60.

In turn, `Cc1ccc(C(=O)/C=C/c2cn(C)c3ccccc23)cc1` [Compound 5c, (E)-3-(1-Methyl-1H-indol-3-yl)-1-p-tolylprop-2-en-1-One] displayed a melting point of 240 °C. In addition, in data set [1], the pIC50 was 4.88. This compound gave a pIC50 in data set [2] of 4.91.

For the compound `COc1ccc(C(=O)/C=C/c2cn(C)c3ccccc23)cc1OC` [Compound 5a, (E)-1-(3,4-Dimethoxyphenyl)-3-(1-methyl-1H-indol-3-yl) prop-2-en-1-one], the melting point came to 271 °C. The compound further showed a pIC50 in data set [1] of 5.08. In addition, the pIC50 in data set [2] was 5.05.

In the case of `Cn1cc(/C=C/C(=O)c2ccccc2)c2ccccc21` [Compound 5e, (E)-3-(1-Methyl-1H-indol-3-yl)-1-phenylprop-2-en-1-one], the negative-log IC50 (pIC50) in data set [1] is 4.89; in data set [2], 5.04.

Take `Cn1cc(-c2cc(-c3cccc([N+](=O)[O-])c3)nc3c2c(=O)[nH]c(=O)n3C)c2ccccc21` [Compound 7d, 1-Methyl-5-(1-methyl-1H-indol-3-yl)-7-(3-nitrophenyl)pyrido[2,3-d]pyrimidine-2,4(1H,3H)-dione]: the melting point is 397 °C. The same compound had a pIC50 in data set [1] of 4.92. In data set [2], this compound showed a negative-log IC50 (pIC50) of 4.86.

Take `Cn1c(=O)c2c(-c3cn(C)c4ccccc34)cc(-c3ccc([N+](=O)[O-])cc3)nc2n(C)c1=O` [Compound 7j, 1,3-Dimethyl-5-(1-methyl-1H-indol-3-yl)-7-(4-nitrophenyl)pyrido[2,3-d]pyrimidine-2,4(1H,3H)-dione]: the melting point is 347 to 349 °C. Moreover, the pIC50 in data set [1] was 4.99. The compound also gave a negative-log IC50 (pIC50) in data set [2] of 5.02.

The compound `COc1ccc(-c2cc(-c3cn(C)c4ccccc34)c3c(=O)[nH]c(=O)n(C)c3n2)cc1OC` [Compound 7a, 7-(3,4-Dimethoxyphenyl)-1-methyl-5-(1-methyl-1H-indol-3-yl)pyrido[2,3-d]pyrimidine-2,4(1H,3H)-dione] returned a melting point of 333 to 334 °C. In addition, in data set [1], the pIC50 was 4.79. Further, the negative logarithm of the IC50 (pIC50) in data set [2] is 4.71.

For `Cn1cc(/C=C/C(=O)c2ccc(Cl)cc2)c2ccccc21` [Compound 5d, (E)-1-(4-Chlorophenyl)-3-(1-methyl-1H-indol-3-yl)prop-2-en-1-one], the melting point is 248 °C. Moreover, the pIC50 in data set [1] is 5.09. The compound also had a pIC50 in data set [2] of 5.08.

The compound `COc1ccc(C(=O)/C=C/c2cn(C)c3ccccc23)cc1` [Compound 5b, (E)-1-(4-Methoxyphenyl)-3-(1-methyl-1H-indol-3-yl) prop-2-en-1-one] yielded a melting point of 254 °C. Also, the negative-log IC50 (pIC50) in data set [1] is 5.13. The compound further had a pIC50 in data set [2] of 4.99.

Compound `Cc1ccc(-c2cc(-c3cn(C)c4ccccc34)c3c(=O)n(C)c(=O)n(C)c3n2)cc1` [Compound 7g, 1,3-Dimethyl-5-(1-methyl-1H-indol-3-yl)-7-p-tolylpyrido[2,3-d]pyrimidine-2,4(1H,3H)-dione] yielded a melting point of 340 to 341 °C. For the same compound, the pIC50 in data set [1] was 5.12. The pIC50 in data set [2] was 5.12.

Turning to `Cn1cc(-c2cc(-c3ccc(Cl)cc3)nc3c2c(=O)[nH]c(=O)n3C)c2ccccc21` [Compound 7c, 7-(4-Chlorophenyl)-1-methyl-5-(1-methyl-1H-indol-3-yl)pyrido[2,3-d]pyrimidine-2,4(1H,3H)-dione], the melting point is 385 to 389 °C. The same compound had a pIC50 in data set [1] of 4.68. For the same compound, the pIC50 in data set [2] was 4.51.
